Molecules are shown by their SMILES.

In US20220372067A1, “3.ALPHA.-HYDROXY-17.BETA.-AMIDE NEUROACTIVE STEROIDS AND COMPOSITIONS THEREOF” (SAGE THERAPEUTICS, INC., priority 2018, published 2022) one finds IC50 data, which are given here for 30 compounds.

The target of this assay is GABAA receptor (TBPS binding site), rat brain cortical membranes. Description: [35S]-TBPS binding assay, rat brain cortical membranes in the presence of 5 mM GABA. To be noted: inhibition of 3 nM [35S]-TBPS binding. The protocol: [^35S]-t-Butylbicyclophosphorothionate (TBPS) binding assays using rat brain cortical membranes in the presence of 5 mM GABA has been described (Gee et al, J. Pharmacol. Exp. Ther. 1987, 241, 346-353; Hawkinson et al, Mol. Pharmacol. 1994, 46, 977-985; Lewin, A. H et al., Mol. Pharmacol. 1989, 35, 189-194).
Briefly, cortices are rapidly removed following decapitation of carbon dioxide-anesthetized Sprague-Dawley rats (200-250 g). The cortices are homogenized in 10 volumes of ice-cold 0.32 M sucrose using a glass/teflon homogenizer and centrifuged at 1500×g for 10 min at 4° C. The resultant supernatants are centrifuged at 10,000×g for 20 min at 4° C. to obtain the P2 pellets. The P2 pellets are resuspended in 200 mM NaCl/50 mM Na—K phosphate pH 7.4 buffer and centrifuged at 10,000×g for 10 min at 4° C. This washing procedure is repeated twice and the pellets are resuspended in 10 volumes of buffer. Aliquots ([…]) of the membrane suspensions are incubated with 3 nM [^35S]-TBPS and […] aliquots of test drug dissolved in dimethyl sulfoxide (DMSO) (final 0.5%) in the presence of 5 mM GABA. The incubation is brought to a final volume of 1.0 mL with buffer. Nonspecific binding is determined in the presence of […] and ranged from 15 to 25%. Following a 90 min incubation at room temp, the assays are terminated by filtration through glass fiber filters (Schleicher and Schuell No. 32) using a cell harvester (Brandel) and rinsed three times with ice-cold buffer. Filter bound radioactivity is measured by liquid scintillation spectrometry. Non-linear curve fitting of the overall data for each drug averaged for each concentration is done using Prism (GraphPad). […] The concentration of test compound producing 50% inhibition (IC50) of specific binding and the maximal extent of inhibition (Imax) are determined for the individual experiments with the same model used for the overall data and then the means±SEM.s of the individual experiments are calculated.
Various compounds are or can be screened to determine their potential as modulators of [^35S]-TBPS binding in vitro. These assays are or can be performed in accordance with the above
Regarding `CCOC[C@@]1(O)CC[C@@]2(C)[C@H](CC[C@@H]3[C@@H]2CC[C@]2(C)[C@@H](C(=O)Nc4ccc(C#N)cn4)CC[C@@H]32)C1` [Example 31], the IC50 is less than 100 nM.
Regarding `CCOC[C@@]1(O)CC[C@H]2[C@H](CC[C@@H]3[C@@H]2CC[C@]2(C)[C@@H](C(=O)Nc4c(C#N)cnn4C)CC[C@@H]32)C1` [Example 57], the IC50 was greater than 1000 nM.
As to `CC[C@@]1(O)CC[C@@]2(C)[C@H](CC[C@@H]3[C@@H]2CC[C@]2(C)[C@@H](C(=O)Nc4nc(C)ccc4Cl)CC[C@@H]32)C1` [Example 15, (3R,5R,8R,9S,10S,13S,14S,17S)-N-(3-chloro-6-methylpyridin-2-yl)-3-ethyl-3-hydroxy-10,13-dimethylhexadecahydro-1H-cyclopenta[a]phenanthrene-17-carboxamide], the IC50 fell in the range of 100 to 1000 nM.
As for `CCOC[C@@]1(O)CC[C@H]2[C@H](CC[C@@H]3[C@@H]2CC[C@]2(C)[C@@H](C(=O)Nc4ncccc4C)CC[C@@H]32)C1` [Example 2, (3R,5R,8R,9R,10S,13S,14S,17S)-3-(ethoxymethyl)-3-hydroxy-13-methyl-N-(3-methylpyridin-2-yl)hexadecahydro-1H-cyclopenta[a]phenanthrene-17-carboxamide], the figure is greater than 1000 nM; as for `CCOC[C@@]1(O)CC[C@H]2[C@H](CC[C@@H]3[C@@H]2CC[C@]2(C)[C@@H](C(=O)Nc4cccc(C)n4)CC[C@@H]32)C1` [Example 4, (3R,5R,8R,9R,10S,13S,14S,17S)-3-(ethoxymethyl)-3-hydroxy-13-methyl-N-(6-methylpyridin-2-yl)hexadecahydro-1H-cyclopenta[a]phenanthrene-17-carboxamide], less than 100 nM.
To `CCOC[C@@]1(O)CC[C@H]2[C@H](CC[C@@H]3[C@@H]2CC[C@]2(C)[C@@H](C(=O)Nc4cccc(C#N)n4)CC[C@@H]32)C1` [Example 60] belongs less than 100 nM; to `CCOC[C@@]1(O)CC[C@H]2[C@H](CC[C@@H]3[C@@H]2CC[C@]2(C)[C@@H](C(=O)Nc4ncccc4C(F)(F)F)CC[C@@H]32)C1` [Example 3, (3R,5R,8R,9R,10S,13S,14S,17S)-3-(ethoxymethyl)-3-hydroxy-13-methyl-N-(3-(trifluoromethyl)pyridin-2-yl)hexadecahydro-1H-cyclopenta[a]phenanthrene-17-carboxamide], 100 to 1000 nM; to `CCOC[C@@]1(O)CC[C@@]2(CC)[C@H](CC[C@H]3[C@@H]4CC[C@H](C(=O)Nc5cc(C)nn5C)[C@@]4(C)CC[C@@H]32)C1` [Example 8, (3R,5R,8S,9S,10S,13S,14S,17S)-N-(1,3-dimethyl-1H-pyrazol-5-yl)-3-(ethoxymethyl)-10-ethyl-3-hydroxy-13-methylhexadecahydro-1H-cyclopenta[a]phenanthrene-17-carboxamide], less than 100 nM.
Turning to `CCOC[C@@]1(O)CC[C@H]2[C@H](CC[C@@H]3[C@@H]2CC[C@]2(C)[C@@H](C(=O)Nc4c5c(nn4C)CCCC5)CC[C@@H]32)C1` [Example 54], the IC50 is 100 to 1000 nM.
Consider `CCOC[C@@]1(O)CC[C@@]2(CC)[C@@H](CC[C@H]3[C@@H]4CC[C@H](C(=O)Nc5ccc(C#N)cn5)[C@@]4(C)CC[C@@H]32)C1` [Example 12, (3R,5S,8S,9S,10S,13S,14S,17S)-N-(5-cyanopyridin-2-yl)-3-(ethoxymethyl)-10-ethyl-3-hydroxy-13-methylhexadecahydro-1H-cyclopenta[a]phenanthrene-17-carboxamide], for which the IC50 was less than 100 nM.
As for `Cc1nc2ccccn2c1NC(=O)[C@H]1CC[C@H]2[C@@H]3CC[C@@H]4C[C@](C)(O)CC[C@@H]4[C@H]3CC[C@]12C` [Example 6, (3R,5R,8R,9R,10S,13S,14S,17S)-3-hydroxy-3,13-dimethyl-N-(2-methylimidazo[1,2-a]pyridin-3-yl)hexadecahydro-1H-cyclopenta[a]phenanthrene-17-carboxamide], the figure is 100 to 1000 nM; as for `COC[C@@]1(O)CC[C@H]2[C@H](CC[C@@H]3[C@@H]2CC[C@]2(C)[C@@H](C(=O)Nc4cccc(N5CCCC5=O)n4)CC[C@@H]32)C1` [Example 50], less than 100 nM; as for `CCOC[C@@]1(O)CC[C@H]2[C@H](CC[C@@H]3[C@@H]2CC[C@]2(C)[C@@H](C(=O)Nc4cc(C5CC5)nn4C)CC[C@@H]32)C1` [Example 56], less than 100 nM.
As for `CCOC[C@@]1(O)CC[C@H]2[C@H](CC[C@@H]3[C@@H]2CC[C@]2(C)[C@@H](C(=O)Nc4nc(C)ccc4C)CC[C@@H]32)C1` [Example 59], the figure is 100 to 1000 nM; as for `CCOC[C@@]1(O)CC[C@H]2[C@H](CC[C@@H]3[C@@H]2CC[C@]2(C)[C@@H](C(=O)Nc4nc(C#N)ccc4C)CC[C@@H]32)C1` [Example 61], 100 to 1000 nM.
To `CCOC[C@@]1(O)CC[C@H]2[C@H](CC[C@@H]3[C@@H]2CC[C@]2(C)[C@@H](C(=O)Nc4ccccn4)CC[C@@H]32)C1` [Example 20] belongs less than 100 nM; to `COC[C@@]1(O)CC[C@H]2[C@H](CC[C@@H]3[C@@H]2CC[C@]2(C)[C@@H](C(=O)Nc4cccc(-n5ccc(C)n5)n4)CC[C@@H]32)C1` [Example 45], less than 100 nM.
For the compound `CCOC[C@@]1(O)CC[C@H]2[C@H](CC[C@@H]3[C@@H]2CC[C@]2(C)[C@@H](C(=O)Nc4cc(C#N)nn4C)CC[C@@H]32)C1` [Example 37], the IC50 is less than 100 nM.
To `COC[C@@]1(O)CC[C@H]2[C@H](CC[C@@H]3[C@@H]2CC[C@]2(C)[C@@H](C(=O)Nc4ccc(C#N)nc4Cl)CC[C@@H]32)C1` [Example 42] belongs less than 100 nM; to `CCOC[C@@]1(O)CC[C@H]2[C@H](CC[C@@H]3[C@@H]2CC[C@]2(C)[C@@H](C(=O)Nc4cnc(C)cn4)CC[C@@H]32)C1` [Example 25], less than 100 nM; to `CCOC[C@@]1(O)CC[C@H]2[C@H](CC[C@@H]3[C@@H]2CC[C@]2(C)[C@@H](C(=O)Nc4ncc(C#N)cc4Cl)CC[C@@H]32)C1` [Example 26], less than 100 nM.
With `CCOC[C@@]1(O)CC[C@H]2[C@H](CC[C@@H]3[C@@H]2CC[C@]2(C)[C@@H](C(=O)Nc4ccc(C#N)nc4C)CC[C@@H]32)C1` [Example 27], the IC50 was less than 100 nM.
To `CCOC[C@@]1(O)CC[C@H]2[C@H](CC[C@@H]3[C@@H]2CC[C@]2(C)[C@@H](C(=O)Nc4ccc(C#N)nn4)CC[C@@H]32)C1` [Example 29] belongs less than 100 nM; to `CCOC[C@@]1(O)CC[C@H]2[C@H](CC[C@@H]3[C@@H]2CC[C@]2(C)[C@@H](C(=O)Nc4cccc(N5CCCC5=O)n4)CC[C@@H]32)C1` [Example 64], less than 100 nM.
As for `Cc1nc2n(c1NC(=O)[C@H]1CC[C@H]3[C@@H]4CC[C@@H]5C[C@](C)(O)CC[C@@H]5[C@H]4CC[C@]13C)CCCC2` [Example 13, (3R,5R,8R,9R,10S,13S,14S,17S)-3-hydroxy-3,13-dimethyl-N-(2-methyl-5,6,7,8-tetrahydroimidazo[1,2-a]pyridin-3-yl)hexadecahydro-1H-cyclopenta[a]phenanthrene-17-carboxamide], the figure is 100 to 1000 nM; as for `COC[C@@]1(O)CC[C@H]2[C@H](CC[C@@H]3[C@@H]2CC[C@]2(C)[C@@H](C(=O)Nc4cccc(C)n4)CC[C@@H]32)C1` [Example 38], less than 100 nM.
As for `CCOC[C@@]1(O)CC[C@@]2(CC)[C@H](CC[C@H]3[C@@H]4CC[C@H](C(=O)Nc5cc(C#N)nn5C)[C@@]4(C)CC[C@@H]32)C1` [Example 35], the figure is less than 100 nM; as for `CCOC[C@@]1(O)CC[C@H]2[C@H](CC[C@@H]3[C@@H]2CC[C@]2(C)[C@@H](C(=O)Nc4ncc(C)cc4C)CC[C@@H]32)C1` [Example 62], 100 to 1000 nM; as for `CCOC[C@@]1(O)CC[C@H]2[C@H](CC[C@@H]3[C@@H]2CC[C@]2(C)[C@@H](C(=O)Nc4ncc(C#N)cc4C)CC[C@@H]32)C1` [Example 23], 100 to 1000 nM.
For the compound `COC[C@@]1(O)CC[C@H]2[C@H](CC[C@@H]3[C@@H]2CC[C@]2(C)[C@@H](C(=O)Nc4ccc(-n5ccc(C)n5)nc4C)CC[C@@H]32)C1` [Example 52], the IC50 was less than 100 nM.

The term IC50 denotes the concentration at which inhibition is half-maximal.
